Test results reported in PubChem BioAssay AID1259407 (Chemical Carcinogenesis Research Information System (CCRIS), 2018).
Active and inactive are the calls of the source. The rule behind the calls is not given here.

Tested on: CCRIS mutagenicity, Ames/micronucleus/aberration tests
Assay: CCRIS mutagenicity studies
[1] = Test System: AMES SALMONELLA TYPHIMURIUM, Strain/Indicator: TA98, Metabolic Activation: NONE, Method: PREINCUBATION
[2] = Test System: AMES SALMONELLA TYPHIMURIUM, Strain/Indicator: TA100, Metabolic Activation: NONE, Method: PREINCUBATION
[3] = Test System: AMES SALMONELLA TYPHIMURIUM, Strain/Indicator: TA1535, Metabolic Activation: NONE, Method: PREINCUBATION
[4] = Test System: AMES SALMONELLA TYPHIMURIUM, Strain/Indicator: TA97, Metabolic Activation: NONE, Method: STANDARD PLATE
[5] = Test System: AMES SALMONELLA TYPHIMURIUM, Strain/Indicator: TA98, Metabolic Activation: NONE, Method: STANDARD PLATE
[6] = Test System: AMES SALMONELLA TYPHIMURIUM, Strain/Indicator: TA100, Metabolic Activation: NONE, Method: STANDARD PLATE
[7] = Test System: AMES SALMONELLA TYPHIMURIUM, Strain/Indicator: TA100, Metabolic Activation: RAT, LIVER, S-9, AROCLOR 1254, Method: STANDARD PLATE
[8] = Test System: AMES SALMONELLA TYPHIMURIUM, Strain/Indicator: TA98, Metabolic Activation: S-9, Method: STANDARD PLATE
[9] = Test System: AMES SALMONELLA TYPHIMURIUM, Strain/Indicator: TA100, Metabolic Activation: S-9, Method: STANDARD PLATE

Q: With `O=C(O)CCCCCCCCC(=O)O` as the compound, how does the mutagenic call [1] read?
A: Its mutagenic call is “inactive; negative”.

Q: And the mutagenic call (Test System: AMES SALMONELLA TYPHIMURIUM, Strain/Indicator: TA98, Metabolic Activation: RAT LIVER S-9, PHENOBARBITAL AND BETA-NAPHTHOFLAVONE, Method: PREINCUBATION)?
A: The mutagenic call was “inactive; negative”.

Q: And the mutagenic call (Test System: AMES SALMONELLA TYPHIMURIUM, Strain/Indicator: TA98, Metabolic Activation: RAT, LIVER, S-9, KC 500, Method: PREINCUBATION)?
A: Its mutagenic call is “inactive; negative”.

Q: What about the mutagenic call [2] of the same compound?
A: Its mutagenic call is “inactive; negative”.

Q: And the mutagenic call (Test System: AMES SALMONELLA TYPHIMURIUM, Strain/Indicator: TA100, Metabolic Activation: RAT LIVER S-9, PHENOBARBITAL AND BETA-NAPHTHOFLAVONE, Method: PREINCUBATION)?
A: The mutagenic call was “inactive; negative”.

Q: What about the mutagenic call (Test System: AMES SALMONELLA TYPHIMURIUM, Strain/Indicator: TA100, Metabolic Activation: RAT, LIVER, S-9, KC 500, Method: PREINCUBATION) of the same compound?
A: The mutagenic call was “inactive; negative”.

Q: What about the mutagenic call [3] of the same compound?
A: The mutagenic call was “inactive; negative”.

Q: What about the mutagenic call (Test System: AMES SALMONELLA TYPHIMURIUM, Strain/Indicator: TA1535, Metabolic Activation: RAT LIVER S-9, PHENOBARBITAL AND BETA-NAPHTHOFLAVONE, Method: PREINCUBATION) of the same compound?
A: Its mutagenic call is “inactive; negative”.

Q: And the mutagenic call (Test System: AMES SALMONELLA TYPHIMURIUM, Strain/Indicator: TA1535, Metabolic Activation: RAT, LIVER, S-9, KC 500, Method: PREINCUBATION)?
A: The mutagenic call was “inactive; negative”.

Q: And the mutagenic call (Test System: AMES SALMONELLA TYPHIMURIUM, Strain/Indicator: TA1537, Metabolic Activation: NONE, Method: PREINCUBATION)?
A: The mutagenic call was “inactive; negative”.

Q: And the mutagenic call (Test System: AMES SALMONELLA TYPHIMURIUM, Strain/Indicator: TA1537, Metabolic Activation: RAT LIVER S-9, PHENOBARBITAL AND BETA-NAPHTHOFLAVONE, Method: PREINCUBATION)?
A: The mutagenic call was “inactive; negative”.

Q: What about the mutagenic call (Test System: AMES SALMONELLA TYPHIMURIUM, Strain/Indicator: TA1537, Metabolic Activation: RAT, LIVER, S-9, KC 500, Method: PREINCUBATION) of the same compound?
A: The mutagenic call was “inactive; negative”.

Q: And the mutagenic call (Test System: AMES SALMONELLA TYPHIMURIUM, Strain/Indicator: TA1538, Metabolic Activation: NONE, Method: PREINCUBATION)?
A: The mutagenic call was “inactive; negative”.

Q: And the mutagenic call (Test System: AMES SALMONELLA TYPHIMURIUM, Strain/Indicator: TA1538, Metabolic Activation: RAT, LIVER, S-9, KC 500, Method: PREINCUBATION)?
A: The mutagenic call was “inactive; negative”.

Q: What about the mutagenic call (Test System: E. COLI, Strain/Indicator: WP2UVRA/PKM101, Metabolic Activation: NONE, Method: PREINCUBATION) of the same compound?
A: The mutagenic call was “inactive; negative”.

Q: What about the mutagenic call (Test System: E. COLI, Strain/Indicator: WP2UVRA/PKM101, Metabolic Activation: RAT LIVER S-9, PHENOBARBITAL AND BETA-NAPHTHOFLAVONE, Method: PREINCUBATION) of the same compound?
A: The mutagenic call was “inactive; negative”.

Q: What about the mutagenic call (Test System: E. COLI, Strain/Indicator: WP2 UVRA, Metabolic Activation: NONE, Method: PREINCUBATION) of the same compound?
A: The mutagenic call was “inactive; negative”.

Q: And the mutagenic call (Test System: E. COLI, Strain/Indicator: WP2 UVRA, Metabolic Activation: RAT, LIVER, S-9, KC 500, Method: PREINCUBATION)?
A: The mutagenic call was “inactive; negative”.

Q: `OC(c1ccc(Cl)cc1)(c1ccc(Cl)cc1)C1CC1` was tested. Which mutagenic call [4] did it give?
A: The mutagenic call was “inactive; negative”.

Q: What about the mutagenic call (Test System: AMES SALMONELLA TYPHIMURIUM, Strain/Indicator: TA97, Metabolic Activation: RAT, LIVER, S-9, AROCLOR 1254, Method: STANDARD PLATE) of the same compound?
A: Its mutagenic call is “inactive; negative”.

Q: And the mutagenic call [5]?
A: The mutagenic call was “inactive; negative”.

Q: What about the mutagenic call (Test System: AMES SALMONELLA TYPHIMURIUM, Strain/Indicator: TA98, Metabolic Activation: RAT, LIVER, S-9, AROCLOR 1254, Method: STANDARD PLATE) of the same compound?
A: The mutagenic call was “inactive; negative”.

Q: And the mutagenic call [6]?
A: Its mutagenic call is “inactive; negative”.

Q: What about the mutagenic call [7] of the same compound?
A: Its mutagenic call is “inactive; negative”.

Q: `O[C@H]1c2ccccc2-c2cc3ccc4ccccc4c3cc2[C@@H]1O` was tested. Which mutagenic call [7] did it give?
A: Its mutagenic call is “active; positive”.

Q: How did the mutagenic call (Test System: AMES SALMONELLA TYPHIMURIUM, Strain/Indicator: TA97, Metabolic Activation: HAMSTER, LIVER, S-9, AROCLOR 1254 (10 OR 30%), Method: PREINCUBATION) turn out when `NCCS(=O)(=O)O` was run?
A: Its mutagenic call is “inactive; negative”.

Q: And the mutagenic call (Test System: AMES SALMONELLA TYPHIMURIUM, Strain/Indicator: TA97, Metabolic Activation: NONE, Method: PREINCUBATION)?
A: The mutagenic call was “inactive; negative”.

Q: What about the mutagenic call (Test System: AMES SALMONELLA TYPHIMURIUM, Strain/Indicator: TA97, Metabolic Activation: RAT, LIVER, S-9, AROCLOR 1254 (10 OR 30%), Method: PREINCUBATION) of the same compound?
A: The mutagenic call was “inactive; negative”.

Q: What about the mutagenic call (Test System: AMES SALMONELLA TYPHIMURIUM, Strain/Indicator: TA98, Metabolic Activation: HAMSTER, LIVER, S-9, AROCLOR 1254 (10 OR 30%), Method: PREINCUBATION) of the same compound?
A: Its mutagenic call is “inactive; negative”.

Q: What about the mutagenic call [1] of the same compound?
A: The mutagenic call was “inactive; negative”.

Q: What about the mutagenic call (Test System: AMES SALMONELLA TYPHIMURIUM, Strain/Indicator: TA98, Metabolic Activation: RAT, LIVER, S-9, AROCLOR 1254 (10 OR 30%), Method: PREINCUBATION) of the same compound?
A: The mutagenic call was “inactive; negative”.

Q: What about the mutagenic call (Test System: AMES SALMONELLA TYPHIMURIUM, Strain/Indicator: TA100, Metabolic Activation: HAMSTER, LIVER, S-9, AROCLOR 1254 (10 OR 30%), Method: PREINCUBATION) of the same compound?
A: The mutagenic call was “inactive; negative”.

Q: What about the mutagenic call [2] of the same compound?
A: Its mutagenic call is “inactive; negative”.

Q: And the mutagenic call (Test System: AMES SALMONELLA TYPHIMURIUM, Strain/Indicator: TA100, Metabolic Activation: RAT, LIVER, S-9, AROCLOR 1254 (10 OR 30%), Method: PREINCUBATION)?
A: The mutagenic call was “inactive; negative”.

Q: And the mutagenic call (Test System: AMES SALMONELLA TYPHIMURIUM, Strain/Indicator: TA1535, Metabolic Activation: HAMSTER, LIVER, S-9, AROCLOR 1254 (10 OR 30%), Method: PREINCUBATION)?
A: Its mutagenic call is “inactive; negative”.

Q: And the mutagenic call [3]?
A: Its mutagenic call is “inactive; negative”.

Q: What about the mutagenic call (Test System: AMES SALMONELLA TYPHIMURIUM, Strain/Indicator: TA1535, Metabolic Activation: RAT, LIVER, S-9, AROCLOR 1254 (10 OR 30%), Method: PREINCUBATION) of the same compound?
A: Its mutagenic call is “inactive; negative”.

Q: Which mutagenic call [6] does the source give for `O=C1OC(=C(Cl)Cl)C(Cl)=C1Cl` here?
A: Its mutagenic call is “active; positive”.

Q: Which results are given for `ONc1ccc2ccccc2c1`?
A: mutagenic call [5]: active; positive; mutagenic call [8]: active; positive; mutagenic call [6]: active; positive; mutagenic call [9]: active; positive; mutagenic call (Test System: AMES SALMONELLA TYPHIMURIUM, Strain/Indicator: TA1535, Metabolic Activation: NONE, Method: STANDARD PLATE): active; positive; mutagenic call (Test System: AMES SALMONELLA TYPHIMURIUM, Strain/Indicator: TA1538, Metabolic Activation: NONE, Method: STANDARD PLATE): active; positive

Q: For `CC(O)CN(CCN(CC(C)O)CC(C)O)CC(C)O` (centres undefined), which mutagenic call [4] is on record?
A: Its mutagenic call is “inactive; negative”.

Q: And the mutagenic call (Test System: AMES SALMONELLA TYPHIMURIUM, Strain/Indicator: TA97, Metabolic Activation: S-9, Method: STANDARD PLATE)?
A: Its mutagenic call is “inactive; negative”.

Q: And the mutagenic call [5]?
A: Its mutagenic call is “inactive; negative”.

Q: What about the mutagenic call [8] of the same compound?
A: The mutagenic call was “inactive; negative”.

Q: What about the mutagenic call [6] of the same compound?
A: Its mutagenic call is “inactive; negative”.

Q: What about the mutagenic call [9] of the same compound?
A: The mutagenic call was “inactive; negative”.

Q: And the mutagenic call (Test System: AMES SALMONELLA TYPHIMURIUM, Strain/Indicator: TA102, Metabolic Activation: NONE, Method: STANDARD PLATE)?
A: The mutagenic call was “inactive; negative”.

Q: And the mutagenic call (Test System: AMES SALMONELLA TYPHIMURIUM, Strain/Indicator: TA102, Metabolic Activation: S-9, Method: STANDARD PLATE)?
A: The mutagenic call was “inactive; negative”.

Q: What about the mutagenic call (Test System: E.COLI, Strain/Indicator: WP2 (PKM101), Metabolic Activation: NONE, Method: STANDARD PLATE) of the same compound?
A: The mutagenic call was “inactive; negative”.

Q: And the mutagenic call (Test System: E.COLI, Strain/Indicator: WP2 (PKM101), Metabolic Activation: S-9, Method: STANDARD PLATE)?
A: Its mutagenic call is “inactive; negative”.
